23 compounds from ChEMBL document CHEMBL1777719, “Norcantharidin analogues with nematocidal activity in Haemonchus contortus” (Bioorg Med Chem Lett, 2011) can be followed below.

Active and inactive are the calls of the source. No cut-off for these calls is given here.

In general, GI50 refers to the concentration at which growth is held to half of that of the control. The low end stands for more potent growth inhibition, the high end for less potent growth inhibition.

Data set [1] can be described thus: Cytotoxicity against human DU145 cells after 72 hrs by MTT assay. The class given is cell-based, DU-145. On the technique in general: Tetrazolium dyes change colour on reduction, which living cells bring about.
Data set [2] can be described thus: Cytotoxicity against human A431 cells after 72 hrs by MTT assay. It counts as cell-based, A-431.
The nature of data set [3]: Cytotoxicity against human SJ-G2 cells after 72 hrs by MTT assay. It counts as cell-based.
A short description of data set [4]: Cytotoxicity against human BE(2)-C cells after 72 hrs by MTT assay. The class given is cell-based.
A short description of data set [5]: Cytotoxicity against human MCF7 cells after 72 hrs by MTT assay. The class given is cell-based.
Data set [6] can be described thus: Cytotoxicity against human H460 cells after 72 hrs by MTT assay. It counts as cell-based. The conditions noted are these: NCI-H460 cells.
Data set [7] is described as follows: Cytotoxicity against human A2780 cells after 72 hrs by MTT assay. It counts as cell-based.
Data set [8] in a line: Cytotoxicity against human SW480 cells after 72 hrs by MTT assay. It counts as cell-based.
A short description of data set [9]: Cytotoxicity against human HT-29 cells after 72 hrs by MTT assay. It counts as cell-based.
The subject of data set [10] is Haemonchus contortus. The experiment in a line: Nematocidal activity against Haemonchus contortus Haecon 5 strain isolated from helminth-free Merino weaner sheep at 12.5 to 100 uM after 6 days by larval development assay. The class given is functional, organism-based.

Turning to `C/C(=N/Nc1ccccc1)c1ccccc1NC(=O)C1C(C(=O)O)[C@@H]2CC[C@H]1O2` (stereo partly specified), the GI50 at 72 h in data set [1], in data set [2], in data set [3], in data set [4], in data set [5] and in data set [6] was 10 µM each time. For the same compound, the GI50 at 72 h in data set [7], in data set [8] and in data set [9] was 10 µM throughout. Also, in data set [10], the inhibition result was “inactive”.
`CCCCCNC(=O)[C@H]1N(Cc2ccccc2)C(=O)C2=C(C)[C@H]3C=C[C@]21O3`: the inhibition entry in [10] is “inactive”.
In the case of `CCCCCCCCN1C(=O)C2=C(C)[C@H]3C=C[C@@]2(O3)[C@@H]1C(=O)NCC(=O)OCC`, the inhibition result in data set [10] was “inactive”.
For `CCCCCCCCNC(=O)C1C(C(=O)O)[C@@H]2CC[C@H]1O2` (stereo partly specified), the GI50 at 72 h in [1], in data set [2], in data set [3], in data set [4], in data set [5] and in [6] was 10 µM in each case. The GI50 at 72 h in data set [7], in data set [8] and in data set [9] was 10 µM throughout. Besides, the inhibition result in data set [10] was “inactive”.
As to `CN(C)CCOc1ccccc1N1C(=O)[C@@H]2[C@H](C1=O)[C@H]1CC[C@@H]2O1`, the GI50 at 72 h in data set [1], in [2], in data set [3], in data set [4], in data set [5] and in [6] was > 75 µM throughout. For the same compound, the GI50 at 72 h in data set [7], in data set [8] and in [9] was > 75 µM throughout.
Take `CCCCCNC(=O)[C@@H]1N(Cc2ccccc2)C(=O)C2=C(C)[C@H]3C=C[C@]21O3`: the inhibition entry in data set [10] is “inactive”.
Regarding `CCCCCNC(=O)[C@H]1N(CCCN(C)C)C(=O)C2=C(CCCC)[C@H]3C=C[C@]21O3`, the inhibition result in data set [10] was “inactive”.
As to `CCOC(=O)c1cn[nH]c1NC(=O)C1C(C(=O)O)[C@@H]2CC[C@H]1O2` (stereo partly specified), the GI50 at 72 h in data set [1], in [2], in [3], in [4], in [5] and in data set [6] was 10 µM in each case. The GI50 at 72 h in data set [7], in [8] and in data set [9] was 10 µM each time. In [10], the inhibition result is “inactive”.
Take `O=C(O)CCCCCCCNC(=O)C1C(C(=O)O)[C@@H]2CC[C@H]1O2` (stereo partly specified): the GI50 at 72 h in data set [1], in [2], in data set [3], in [4], in [5] and in [6] was 10 µM each time. Further, the GI50 at 72 h in data set [7], in data set [8] and in data set [9] was 10 µM each time. In addition, the inhibition entry in [10] is “inactive”.
Turning to `Cc1cc(C)c(NC(=O)C2C(C(=O)O)[C@@H]3CC[C@H]2O3)c(C)c1` (stereo partly specified), the GI50 at 72 h in [1], in data set [2], in data set [3], in data set [4], in [5] and in [6] was 10 µM each time. Further, the GI50 at 72 h in [7], in [8] and in data set [9] was 10 µM throughout. Moreover, the inhibition result in data set [10] was “inactive”.
For the compound `O=C(O)C1C(C(=O)Nc2ccc(O)cc2)[C@H]2CC[C@@H]1O2` (stereo partly specified), the GI50 at 72 h in data set [1], in data set [2], in data set [3], in data set [4], in [5] and in data set [6] was 10 µM each time. Besides, the GI50 at 72 h in data set [7], in data set [8] and in data set [9] was 10 µM in each case. The inhibition entry in data set [10] was “inactive”.
Turning to `CCCCCCCCN1C(=O)C2=C(C)[C@H]3C=C[C@@]2(O3)[C@H]1C(=O)NCC(=O)OCC`, the inhibition result in data set [10] was “inactive”.
Regarding `O=C1[C@@H]2[C@H](C(=O)N1CCOP(=O)(OCC(Cl)(Cl)Cl)OCC(Cl)(Cl)Cl)[C@H]1CC[C@@H]2O1`, the GI50 at 72 h in data set [1], in data set [2], in data set [3], in data set [4], in data set [5] and in data set [6] was > 75 µM each time. Also, the GI50 at 72 h in data set [7], in data set [8] and in data set [9] was > 75 µM in each case.
As for `O=C(O)C1C(C(=O)Nc2ccc(Br)cc2)[C@H]2CC[C@@H]1O2` (stereo partly specified), the GI50 at 72 h in [1], in data set [2], in [3], in data set [4], in data set [5] and in [6] was 10 µM in each case. The GI50 at 72 h in data set [7], in data set [8] and in data set [9] was 10 µM throughout. In [10], the inhibition result is “inactive”.
As to `COC(=O)CNC(=O)[C@H]1N(CCCCCO)C(=O)C2=C(C)[C@H]3C=C[C@]21O3`, the inhibition entry in data set [10] is “inactive”.
Regarding `CCCCCCCCCCCCCCN1C(=O)[C@@H]2[C@H](C1=O)[C@H]1CC[C@@H]2O1`, the inhibition entry in data set [10] is “inactive”.
`COC(=O)CNC(=O)[C@@H]1N(CCCCCO)C(=O)C2=C(C)[C@H]3C=C[C@]21O3`: the inhibition result in data set [10] is “inactive”.
Consider `CCCCCCCCCCCCN1C(=O)[C@@H]2[C@H](C1=O)[C@H]1CC[C@@H]2O1`, for which the inhibition entry in data set [10] was “inactive”.
Turning to `O=C(O)[C@H](Cc1ccc(O)cc1)N1C(=O)[C@@H]2[C@H](C1=O)[C@H]1CC[C@@H]2O1`, the concentration for 50% growth inhibition (GI50) at 72 h in data set [1], in data set [2], in data set [3], in data set [4], in data set [5] and in data set [6] was > 75 µM throughout. Further, the concentration for 50% growth inhibition (GI50) at 72 h in [7], in data set [8] and in data set [9] was > 75 µM throughout.
For the compound `CCCCCCCCCCCCCCCCCCN1C(=O)[C@@H]2[C@H](C1=O)[C@H]1CC[C@@H]2O1`, the inhibition entry in [10] is “inactive”.
Turning to `CN(C)CCOc1ccc(N2C(=O)[C@@H]3[C@H](C2=O)[C@H]2CC[C@@H]3O2)cc1`, the GI50 at 72 h in data set [1], in data set [2], in data set [3], in data set [4], in [5] and in [6] was > 75 µM throughout. The 50% growth inhibitory concentration (GI50) at 72 h in [7], in data set [8] and in data set [9] was > 75 µM in each case.
Regarding `CCCCCNC(=O)[C@@H]1N(CCCN(C)C)C(=O)C2=C(CCCC)[C@H]3C=C[C@]21O3`, the inhibition result in data set [10] was “inactive”.
As to `O=C1[C@@H]2[C@H](C(=O)N1c1ncccc1OCc1ccccc1)[C@H]1CC[C@@H]2O1`, the 50% growth inhibitory concentration (GI50) at 72 h in [1], in data set [2], in data set [3], in [4], in data set [5] and in [6] was > 75 µM in each case. Moreover, the GI50 at 72 h in data set [7], in data set [8] and in data set [9] was > 75 µM each time.
